Results published in patent US9110076B2, “Method for quantifying modified peptides” (HVIVO SERVICES LIMITED, priority 2009, dated 2015).

Legend:
AML-193 = assay: Sensitivity of AML cell lines to drug treatment (MTS assay); type: cell-based; details: 72 h
Procedure: (§1) Sensitivity of AML cell lines to drug treatment. Eight cell lines (AML-193, CMK, CTS, HEL, Kasumi-1, KG-1, MV4-11 and P31/FUJ) were seeded in 96 well plates at 1×10^5 cell/ml in triplicate for each condition. After a recovery period of 2 h, cells were treated with increasing concentrations (1 nM, 10 nM, 100 nM, 1 μM and 10 μM) of FLT3 inhibitor, MEK I inhibitor, JAK I inhibitor, LY294002, PI-103 and IC87114. As controls, cells were both treated with the vehicle (DMSO) and left untreated. After 72 hours treatment, cell viability was assessed by MTS assay (CellTiter 96® AQueous One Solution Cell Proliferation assay, Promega Corporation, Madison, Wis., USA).

HEL = assay: as above; type: cell-based; details: 72 h
Procedure: as §1

MV4-11 = assay: as above; type: cell-based; details: 72 h
Procedure: as §1

P31/FUJ = assay: as above; type: cell-based; details: 72 h
Procedure: as §1

NIH-3T3 fibroblasts = assay: TIQUAS quantification of phosphorylation sites in starved, serum-stimulated cells with or without wortmannin pre-incubation; type: cell-based, murine; details: of 2,350 phosphorylated peptides quantified; WM treatment of cells prior to serum stimulation; 4 experiments
Procedure: The novel quantitative techniques of the invention were used to quantify phosphorylation sites in NIH-3T3 fibroblasts, which were starved and then stimulated with serum with or without pre-incubation with the pan-PI3K inhibitor wortmannin (WM). These experiments were performed 4 times. […] Cells were treated as indicated, lysed with a urea-based buffer to obtain nuclear as well as cytosolic proteins and proteins digested. Resultant phosphorylated peptides were enriched by IMAC and TiO2 chromatography and quantified by LC-MS using a computer program developed by the inventors ([…]) (Cutillas and Vanhaesebroeck, Molecular & Cellular Proteomics 6, 1560-1573 (2007)). FIG. 2(B) gives a summary of the data obtained and a snapshot of the data sorted by probability.

CC(C)(C)c1nc2c3cc[nH]c(=O)c3c3cc(F)ccc3c2[nH]1 [JAK I]
sensitivity of cell line to inhibitor (survival by MTS assay) (AML-193): sensitive
sensitivity of cell line to inhibitor (survival by MTS assay) (HEL): resistant

Oc1cccc(-c2nc(N3CCOCC3)c3oc4ncccc4c3n2)c1 [PI-103]
sensitivity of cell line to inhibitor (survival by MTS assay) (MV4-11): sensitive
sensitivity of cell line to inhibitor (survival by MTS assay) (P31/FUJ): resistant

COC[C@H]1OC(=O)c2coc3c2[C@@]1(C)C1=C(C3=O)[C@@H]2CCC(=O)[C@@]2(C)C[C@H]1OC(C)=O [WM, wortmannin]
phosphorylated peptides significantly (p<0.05) affected by WM treatment (NIH-3T3 fibroblasts): 265
